The record followed here is patent US11970474B2, “Substituted benzodiazoles and use thereof in therapy” (THOMAS HELLEDAYS STIFTELSE FÖR MEDICINSK FORSKNING, priority 2018, dated 2024).

Like-named read-outs stand apart in the source and are kept apart here.

Broadly, the IC50 is the midpoint of a concentration-inhibition curve. Broadly, the EC50 is the concentration needed to bring the measured effect to its halfway point.

For one assay, the target named is OGG1 (Homo sapiens (Human), UniProt O15527). As to the kind of experiment: In vitro OGG1 activity assay. The format is biochemical. The note with it: 800 pM OGG1 enzyme, 2 nM human APEX1, 10 nM 8-oxoA:C substrate. The essentials:
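Fluorescence-release assay on a duplex oligonucleotide carrying an OGG1 substrate base beside a fluorophore, quenched from the complementary strand. Excess APEX1 cleaves the abasic site left by base excision, melting the duplex and unquenching the fluorophore. Compounds in DMSO were dispensed before enzyme and substrate, and fluorescein signal was read.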

The subject of the next assay is MLE12 cells. As to the kind of experiment: Cell viability assay in MLE12 cells (resazurin). The format is cell-based, mouse. The following applies: TNF-α 20 ng/ml, resazurin added after 24 hours culture. In a few lines: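 MLE12 cells (7500 cells/well) were seeded onto 11-point duplicate compound dose-responses, with TNF-α (final 20 ng/ml) added after 1 hour at 37° C. After 24 hours, resazurin was added for 6 hours and resorufin fluorescence read (ex544 nm/em595 nm). EC50 values were calculated by curve fitting.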

A further assay concerns CCL2. The assay is described as follows: Mouse CCL2 assay in MLE12 cells. The format is cell-based. The essentials: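 MLE12 mouse lung epithelial cells (7500/well, DMEM/F12 with 5% FBS) preincubated 1 h with compounds (6-point dose-response, duplicate), then stimulated with TNF-α (final 20 ng/ml) for 30 h at 37 °C. Secreted CCL2 measured by HTRF sandwich immunoassay (Ex330/Em620, 665 nm) against standard curve; IC50 from delta ratios.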

Setting [1] is: Mus musculus, MLE12, 30 h, MLE12 cells, TNF-α 20 ng/ml, supernatant after 30 hours, HTRF, read-out: CCL2 (EC50).
Setting [2] is: MLE12 cells, TNF-α 20 ng/ml, supernatant after 30 hours, HTRF, read-out: CCL2 (EC50).

OGG1, sequence (O15527 whole entry): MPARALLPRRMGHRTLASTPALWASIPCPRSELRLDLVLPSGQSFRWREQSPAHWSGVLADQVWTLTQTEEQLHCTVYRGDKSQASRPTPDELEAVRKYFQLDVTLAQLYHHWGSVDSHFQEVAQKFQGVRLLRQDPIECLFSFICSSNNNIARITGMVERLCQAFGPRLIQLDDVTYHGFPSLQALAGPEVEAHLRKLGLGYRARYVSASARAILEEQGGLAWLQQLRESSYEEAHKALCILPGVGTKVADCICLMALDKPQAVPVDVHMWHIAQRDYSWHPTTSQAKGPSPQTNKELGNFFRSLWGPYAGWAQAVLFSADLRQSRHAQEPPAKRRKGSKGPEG

As to `COc1cc(NC(=O)[C@H]2CC[C@@H](n3c(=O)[nH]c4c(C5=CCN(C)CC5)cccc43)CC2)ccc1C` [Example 312, Cis-N-(3-methoxy-4-methylphenyl)-4-[4-(1-methyl-1,2,3,6-tetrahydropyridin-4-yl)-2-oxo-2,3-dihydro-1H-1,3-benzodiazol-1-yl]cyclohexane-1-carboxamide], the IC50 was 0.00294 µM against OGG1 and 11 µM in the assay with MLE12 cells (Mus musculus, MLE12, 24 h). For the same compound, in the assay with CCL2 (setting [1]), the concentration giving a half-maximal response (EC50) came to 28500 nM.
For the compound `O=c1[nH]c2c(Br)cccc2n1[C@H]1CC[C@@H](C(=O)Nc2ccccc2)CC1` [Example 127, (Cis)-4-(4-bromo-2-oxo-2,3-dihydro-1H-1,3-benzodiazol-1-yl)-N-phenylcyclohexane-1-carboxamide], the concentration for half-maximal inhibition (IC50) came to 1.22 µM against OGG1 and 16.2 µM in the assay with MLE12 cells (Mus musculus, MLE12, 24 h). In addition, in the assay on CCL2 (setting [1]), the EC50 was determined as 28700 nM.
For `COc1ccc(NC(=O)[C@H]2CC[C@@H](n3c(=O)[nH]c4c(Br)cccc43)CC2)cc1` [Example 140, (Cis)-4-(4-bromo-2-oxo-2,3-dihydro-1H-1,3-benzodiazol-1-yl)-N-(4-methoxyphenyl)cyclohexane-1-carboxamide], in that order: 0.025 µM, 17.7 µM and 34600 nM.
Turning to `COc1cc(NC(=O)[C@H]2CC[C@@H](n3c(=O)[nH]c4c(N(C)CCN(C)C)cccc43)CC2)ccc1C` [Example 229, Cis-4-(4-{[2-(dimethylamino)ethyl](methyl)amino}-2-oxo-2,3-dihydro-1H-1,3-benzodiazol-1-yl)-N-(3-methoxy-4-methylphenyl)cyclohexane-1-carboxamide], the concentration for half-maximal inhibition (IC50) was found to be 0.0298 µM against OGG1; 9.19 µM with MLE12 cells (Mus musculus, MLE12, 24 h); 6.67 µM with MLE12 cells. Besides, the concentration for a half-maximal effect (EC50) turned out to be 6930 nM in the assay on CCL2 (setting [2]) and 12200 nM in the assay on CCL2 (setting [1]).
Take `COc1ccc(NC(=O)[C@H]2CC[C@@H](n3c(=O)[nH]c4c(OC)cccc43)CC2)cc1C` [Example 206, Cis-4-(4-methoxy-2-oxo-2,3-dihydro-1H-1,3-benzodiazol-1-yl)-N-(4-methoxy-3-methylphenyl)cyclohexane-1-carboxamide]: the IC50 came to 0.0154 µM against OGG1 and 26.7 µM in the assay on MLE12 cells (Mus musculus, MLE12, 24 h). The EC50 in the assay with CCL2 (setting [1]) worked out at 33700 nM.
For the compound `COc1cc(NC(=O)N2C3CCC2CC(n2c(=O)[nH]c4c(Br)cccc42)C3)ccc1C` (stereo not drawn) [Example 85, 3-(4-Bromo-2-oxo-2,3-dihydro-1H-1,3-benzodiazol-1-yl)-N-(3-methoxy-4-methylphenyl)-(endo)-8-azabicyclo[3.2.1]octane-8-carboxamide], the values for the half-inhibitory concentration (IC50) at OGG1 and in the assay on MLE12 cells (Mus musculus) were 0.033 µM and 17.2 µM, respectively. Further, the concentration giving a half-maximal response (EC50) with CCL2 (Mus musculus, MLE12, 30 h, read-out: CCL2 (EC50, nM)) came to 39200 nM.
On to `COc1cc(NC(=O)[C@H]2CC[C@@H](n3c(=O)[nH]c4c(NC(=O)CN(C)C)cccc43)CC2)ccc1C` [Example 283, Cis-4-{4-[2-(dimethylamino)acetamido]-2-oxo-2,3-dihydro-1H-1,3-benzodiazol-1-yl}-N-(3-methoxy-4-methylphenyl)cyclohexane-1-carboxamide], for which the IC50 on OGG1 turned out to be 0.014 µM; in the assay on MLE12 cells (Mus musculus, MLE12, 24 h), 19.8 µM. Moreover, the concentration giving a half-maximal response (EC50) with CCL2 (setting [1]) came to 30800 nM.
Take `COc1ccc(NC(=O)[C@H]2CC[C@@H](n3c(=O)[nH]c4c(F)cccc43)CC2)cc1C` [Example 212, Cis-4-(4-fluoro-2-oxo-2,3-dihydro-1H-1,3-benzodiazol-1-yl)-N-(4-methoxy-3-methylphenyl)cyclohexane-1-carboxamide]: the IC50 at OGG1 worked out at 0.00943 µM; in the assay on MLE12 cells (Mus musculus, MLE12, 24 h) it was 16.9 µM. Besides, the half-maximal effective concentration (EC50) with CCL2 (setting [1]) is 34200 nM.
For `O=c1[nH]c2c(Br)cccc2n1[C@H]1CC[C@@H](C(=O)Nc2ccc(Cl)cc2Cl)CC1` [Example 131, (Cis)-4-(4-bromo-2-oxo-2,3-dihydro-1H-1,3-benzodiazol-1-yl)-N-(2,4-dichlorophenyl)cyclohexane-1-carboxamide], in that order: 0.676 µM, 17.4 µM and 39200 nM.
As for `COc1cc(NC(=O)[C@H]2CC[C@@H](n3c(=O)[nH]c4c(NC(=O)c5cc(C)on5)cccc43)CC2)ccc1C` [Example 300, 5-Methyl-N-{2-oxo-1-[cis-4-[(3-methoxy-4-methylphenyl)carbamoyl]cyclohexyl]-2,3-dihydro-1H-1,3-benzodiazol-4-yl}-1,2-oxazole-3-carboxamide], the half-inhibitory concentration (IC50) was determined as 0.0099 µM on OGG1 and 1.58 µM with MLE12 cells (Mus musculus, MLE12, 24 h). In addition, in the assay with CCL2 (setting [1]), the EC50 stood at 2110 nM.
For `COc1cc(NC(=O)N2C3CCC2CC(n2c(=O)[nH]c4c(-c5ccc(CO)nc5)cccc42)C3)ccc1Cl` (stereo not drawn) [Example 93, N-(4-chloro-3-methoxyphenyl)-3-{4-[6-(hydroxymethyl)pyridin-3-yl]-2-oxo-2,3-dihydro-1H-1,3-benzodiazol-1-yl}-(endo)-8-azabicyclo[3.2.1]octane-8-carboxamide], in that order: 0.091 µM, 21.3 µM and 34900 nM.
In the case of `Cc1cc(NC(=O)[C@H]2CC[C@@H](n3c(=O)[nH]c4c(Br)cccc43)CC2)ccc1Cl` [Example 152, (Cis)-4-(4-bromo-2-oxo-2,3-dihydro-1H-1,3-benzodiazol-1-yl)-N-(4-chloro-3-methylphenyl)cyclohexane-1-carboxamide], the IC50 at OGG1 is 0.074 µM; with MLE12 cells (Mus musculus, MLE12, 24 h) it was 6.18 µM. Further, the 50% effective concentration (EC50) with CCL2 (setting [1]) is 15400 nM.
With `COc1cc(NC(=O)[C@H]2CC[C@@H](n3c(=O)[nH]c4c(Br)cccc43)CC2)ccc1C` [Example 107, (Cis)-4-(4-bromo-2-oxo-2,3-dihydro-1H-1,3-benzodiazol-1-yl)-N-(3-methoxy-4-methylphenyl)cyclohexane-1-carboxamide], the IC50 against OGG1 turned out to be 0.023 µM; in the assay with MLE12 cells (Mus musculus, MLE12, 24 h) it was 7.41 µM; in the assay with MLE12 cells it was 7.4 µM. Besides, the EC50 in the assay with CCL2 (setting [2]) was found to be 16700 nM; in the assay on CCL2 (setting [1]) it was 15600 nM.
`O=c1[nH]c2c(Br)cccc2n1[C@H]1CC[C@@H](C(=O)Nc2ccc(Cl)cc2)CC1` [Example 119, (Cis)-4-(4-bromo-2-oxo-2,3-dihydro-1H-1,3-benzodiazol-1-yl)-N-(4-chlorophenyl)cyclohexane-1-carboxamide]: the IC50 is 0.072 µM on OGG1 and 5.07 µM in the assay on MLE12 cells (Mus musculus, MLE12, 24 h). In addition, the EC50 with CCL2 (setting [1]) is 17700 nM.
For `Cc1ccc(NC(=O)[C@H]2CC[C@@H](n3c(=O)[nH]c4c(Br)cccc43)CC2)c(F)c1` [Example 153, (Cis)-4-(4-bromo-2-oxo-2,3-dihydro-1H-1,3-benzodiazol-1-yl)-N-(2-fluoro-4-methylphenyl)cyclohexane-1-carboxamide], in that order: 0.383 µM, 24.6 µM and 44000 nM.
Turning to `CCNC(=O)c1cnn(-c2cccc3c2[nH]c(=O)n3C2CCN(C(=O)Nc3ccc(I)cc3)CC2)c1` [Example 87, 4-{4-[4-(Ethylcarbamoyl)-1H-pyrazol-1-yl]-2-oxo-2,3-dihydro-1H-1,3-benzodiazol-1-yl}-N-(4-iodophenyl)piperidine-1-carboxamide], the IC50 at OGG1 is 0.471 µM; in the assay on MLE12 cells (Mus musculus, MLE12, 24 h), 5.25 µM. Also, in the assay with CCL2 (setting [1]), the concentration giving a half-maximal response (EC50) came out at 6480 nM.
For `COc1cc(NC(=O)[C@H]2CC[C@@H](n3c(=O)[nH]c4c(S)cccc43)CC2)ccc1C` [Example 237, Cis-N-(3-methoxy-4-methylphenyl)-4-(2-oxo-4-sulfanyl-2,3-dihydro-1H-1,3-benzodiazol-1-yl)cyclohexane-1-carboxamide], in that order: 0.0671 µM, 4.54 µM and 31700 nM.
For `COc1cc(NC(=O)N2CCC(n3c(=O)[nH]c4c(Br)cccc43)CC2)ccc1Cl` [Example 77, 4-(4-Bromo-2-oxo-2,3-dihydro-1H-1,3-benzodiazol-1-yl)-N-(4-chloro-3-methoxyphenyl)piperidine-1-carboxamide], the concentration for half-maximal inhibition (IC50) against OGG1 is 0.358 µM; in the assay on MLE12 cells (Mus musculus, MLE12, 24 h), 7.4 µM. In the assay with CCL2 (setting [1]), the EC50 amounted to 21200 nM.
On to `Cn1ncc2cc(NC(=O)[C@H]3CC[C@@H](n4c(=O)[nH]c5c(Br)cccc54)CC3)ccc21` [Example 171, (Cis)-4-(4-bromo-2-oxo-2,3-dihydro-1H-1,3-benzodiazol-1-yl)-N-(1-methyl-1H-indazol-5-yl)cyclohexane-1-carboxamide], for which the IC50 at OGG1 was 0.211 µM; in the assay on MLE12 cells (Mus musculus, MLE12, 24 h), 17.5 µM. Besides, the half-maximal effective concentration (EC50) in the assay on CCL2 (setting [1]) amounted to 41100 nM.
As to `O=C(Nc1ccc(Br)c(Cl)c1)N1CCC(n2c(=O)[nH]c3c(Br)cccc32)CC1` [Example 49, 4-(4-Bromo-2-oxo-2,3-dihydro-1H-1,3-benzodiazol-1-yl)-N-(4-bromo-3-chlorophenyl)piperidine-1-carboxamide], the half-maximal inhibitory concentration (IC50) stood at 0.379 µM against OGG1 and 5.4 µM in the assay on MLE12 cells (Mus musculus, MLE12, 24 h). In the assay with CCL2 (setting [1]), the half-maximal effective concentration (EC50) worked out at 15200 nM.
As for `COc1cc(NC(=O)[C@H]2CC[C@@H](n3c(=O)[nH]c4c(C(=O)NCC5CCCO5)cccc43)CC2)ccc1C` (stereo partly drawn) [Example 273, 2-Oxo-N-[(oxolan-2-yl)methyl]-1-[cis-4-[(3-methoxy-4-methylphenyl)carbamoyl]cyclohexyl]-2,3-dihydro-1H-1,3-benzodiazole-4-carboxamide], the IC50 came out at 0.0175 µM at OGG1 and 19.2 µM in the assay on MLE12 cells (Mus musculus, MLE12, 24 h). Also, the EC50 with CCL2 (setting [1]) is 32600 nM.
